Measured values: patent publication US12202835B2, “Substituted aromatic ring-linked dioxinoquinazolines and dioxinoquinolines as kinase inhibitors” (BEIJING SCITECH-MQ PHARMACEUTICALS LIMITED, priority 2018, dated 2025)

How the values were obtained:
Format in all cases: biochemical
MER kinase = MER kinase (Homo sapiens (Human), UniProt Q12866); experiment: Assay of small molecular compounds for inhibiting the activity of MER kinase (LANCE TR-FRET)
Procedure: The assay of small molecular compounds for inhibiting the activity of MER kinase is based on the LANCE TR-FRET technology of Perkin Elmer Inc., and the assay method is as follows: • 1. Dilution of compounds: a total of 11 concentrations were obtained using a 3-fold gradient dilution from the highest concentration of 2500 nM (the maximum final concentration of the drug used in this assay was 2500 nM, and the minimum final concentration was 0.042 nM). • 2. 2.5 μL of the gradient-diluted compounds were taken with a transfer pipette to a 384-well plate. • 3. Addition of enzyme: 5 μL of 2×MER kinase solution (with a concentration of 1 nM) was taken with a transfer pipette to the corresponding reaction well of the 384-well plate, mixed well and pre-reacted at room temperature for 5 minutes. • 4. 2.5 μL 4× ULight-labeled Ploy GT (with a concentration of 200 nM)/ATP (with a concentration of 20 μM) mixture was taken with a transfer pipette to the corresponding reaction well of the 384-well plate. • 5. Negative control: 2.5 μL/well 4× substrate/ATP mixture and 7.5 μL 1× Kinase Assay Buffer were added to the wells of the 384-well plate.
(§1) Positive control: 2.5 μL/well 4× substrate/ATP mixture, 2.5 μL/well 1× Kinase Assay Buffer containing 4% DMSO, and 5 μL/well 2×MER kinase solution were added to the 384-well plate. The final concentration of DMSO in the reaction system was 1%. • 6. The mixture was mixed well and then centrifuged and reacted at room temperature in dark for 60 min. • 7. Termination of the enzymatic reaction: 5 μL of 4× stop solution was taken with a transfer pipette to the wells of the 384-well plate, mixed and then centrifuged, and reacted at room temperature for 5 min. • 8. Development of the reaction: 5 μL of 4× detection solution was taken with a transfer pipette to the wells of the 384-well plate for color development, and the mixture was mixed and then centrifuged and reacted at room temperature for 60 min. • 9. The 384-well plate was placed into the Envision plate reader and the signal was detected using the appropriate program. • 10. Analysis and processing of the raw data:
The drug concentrations and the corresponding inhibition rates were input into GraphPad Prism5 for calculation, and the inhibition rate of the compounds were calculated as follows: inhibition rate (%)=(reading of positive well−reading of experimental well)/(reading of positive control well−reading of negative control well)×100%. Processing with GraphPad Prism5 software yielded the corresponding IC50 values (the concentration of the compound at which 50% of the highest inhibition of the enzyme is achieved).

c-MET kinase = c-MET kinase (Homo sapiens (Human), UniProt P08581); experiment: Assay of small molecular compounds for inhibiting the activity of c-MET kinase (LANCE TR-FRET); settings: read-out: CMET IC50
Procedure: The assay is based on the LANCE TR-FRET technology of Perkin Elmer Inc., and the assay method is as follows: • 1. Dilution of compounds: a total of 11 concentrations were obtained using a 3-fold gradient dilution from the highest concentration of 2500 nM (the maximum final concentration of the drug used in this assay was 2500 nM, and the minimum final concentration was 0.042 nM). • 2. 2.5 μL of the gradient-diluted compounds were taken with a transfer pipette to a 384-well plate. • 3. Addition of enzyme: 5 μL of 2×c-MET kinase solution (with a concentration of 2 nM) was taken with a transfer pipette to the corresponding reaction well of the 384-well plate, mixed well and pre-reacted at room temperature for 5 minutes. • 4. 2.5 μL 4× Ultra ULight™-JAK-1 (Tyr1023) Peptide (with a concentration of 400 nM)/ATP (with a concentration of 40 μM) mixture was taken with a transfer pipette to the corresponding reaction well of the 384-well plate. • 5. Negative control: 2.5 μL/well 4× substrate/ATP mixture and 7.5 μL 1× Kinase Assay Buffer were added to the wells of the 384-well plate. • 6. Positive control: 2.5 μL/well 4× substrate/ATP mixture, 2.5 μL/well 1× Kinase Assay Buffer containing 16% DMSO, and 5 μL/well 2× c-MET kinase solution were added to the 384-well plate. The final concentration of DMSO in the reaction system was 4%. • 7. The mixture was mixed well and then centrifuged and reacted at room temperature in dark for 60 min. • 8. Termination of the enzymatic reaction: 5 μL of 4× stop solution was taken with a transfer pipette to the wells of the 384-well plate, mixed and then centrifuged, and reacted at room temperature for 5 min. • 9. Development of the reaction: 5 μL of 4× detection solution was taken with a transfer pipette to the wells of the 384-well plate for color development, and the mixture was mixed and then centrifuged and reacted at room temperature for 60 min. • 10. The 384-well plate was placed into the Envision plate reader and the signal was detected using the appropriate program. • 11. Analysis and processing of the raw data: • 12. The drug concentrations and the corresponding inhibition rates were input into GraphPad Prism5 for calculation, and the inhibition rate of the compounds were calculated as follows: inhibition rate (%)=(reading of positive well−reading of experimental well)/(reading of positive control well−reading of negative control well)×100%. Processing with GraphPad Prism5 software yielded the corresponding IC50 values (the concentration of the compound at which 50% of the highest inhibition of the enzyme is achieved).

TRKA kinase = TRKA kinase (Homo sapiens (Human), UniProt P04629); experiment: Assay of small molecular compounds for inhibiting the activity of TRKA kinase (LANCE TR-FRET)
Procedure: The assay of small molecular compounds for inhibiting the activity of TRKA kinase is based on the LANCE TR-FRET technology of Perkin Elmer Inc., and the assay method is as follows: • 1. […] 2.5 μL of the gradient-diluted compounds were taken with a transfer pipette to a 384-well plate. • 3. Addition of enzyme: 5 μL of 2×TRKA kinase solution (with a concentration of 2 nM) was taken with a transfer pipette to the corresponding reaction well of the 384-well plate, mixed well and pre-reacted at room temperature for 5 minutes. • 4. 2.5 μL 4× Ultra ULight-labeled TK Peptide (with a concentration of 400 nM)/ATP (with a concentration of 40 μM) mixture was taken with a transfer pipette to the corresponding reaction well of the 384-well plate. • 5. Negative control: 2.5 μL/well 4× substrate/ATP mixture and 7.5 μL 1× Kinase Assay Buffer were added to the wells of the 384-well plate.
as §1, with “2×TRKA” for “2×MER”, “program.” for “program. • 10. Analysis and processing of the raw data:”

Sequence of c-MET kinase (P08581 25-1390): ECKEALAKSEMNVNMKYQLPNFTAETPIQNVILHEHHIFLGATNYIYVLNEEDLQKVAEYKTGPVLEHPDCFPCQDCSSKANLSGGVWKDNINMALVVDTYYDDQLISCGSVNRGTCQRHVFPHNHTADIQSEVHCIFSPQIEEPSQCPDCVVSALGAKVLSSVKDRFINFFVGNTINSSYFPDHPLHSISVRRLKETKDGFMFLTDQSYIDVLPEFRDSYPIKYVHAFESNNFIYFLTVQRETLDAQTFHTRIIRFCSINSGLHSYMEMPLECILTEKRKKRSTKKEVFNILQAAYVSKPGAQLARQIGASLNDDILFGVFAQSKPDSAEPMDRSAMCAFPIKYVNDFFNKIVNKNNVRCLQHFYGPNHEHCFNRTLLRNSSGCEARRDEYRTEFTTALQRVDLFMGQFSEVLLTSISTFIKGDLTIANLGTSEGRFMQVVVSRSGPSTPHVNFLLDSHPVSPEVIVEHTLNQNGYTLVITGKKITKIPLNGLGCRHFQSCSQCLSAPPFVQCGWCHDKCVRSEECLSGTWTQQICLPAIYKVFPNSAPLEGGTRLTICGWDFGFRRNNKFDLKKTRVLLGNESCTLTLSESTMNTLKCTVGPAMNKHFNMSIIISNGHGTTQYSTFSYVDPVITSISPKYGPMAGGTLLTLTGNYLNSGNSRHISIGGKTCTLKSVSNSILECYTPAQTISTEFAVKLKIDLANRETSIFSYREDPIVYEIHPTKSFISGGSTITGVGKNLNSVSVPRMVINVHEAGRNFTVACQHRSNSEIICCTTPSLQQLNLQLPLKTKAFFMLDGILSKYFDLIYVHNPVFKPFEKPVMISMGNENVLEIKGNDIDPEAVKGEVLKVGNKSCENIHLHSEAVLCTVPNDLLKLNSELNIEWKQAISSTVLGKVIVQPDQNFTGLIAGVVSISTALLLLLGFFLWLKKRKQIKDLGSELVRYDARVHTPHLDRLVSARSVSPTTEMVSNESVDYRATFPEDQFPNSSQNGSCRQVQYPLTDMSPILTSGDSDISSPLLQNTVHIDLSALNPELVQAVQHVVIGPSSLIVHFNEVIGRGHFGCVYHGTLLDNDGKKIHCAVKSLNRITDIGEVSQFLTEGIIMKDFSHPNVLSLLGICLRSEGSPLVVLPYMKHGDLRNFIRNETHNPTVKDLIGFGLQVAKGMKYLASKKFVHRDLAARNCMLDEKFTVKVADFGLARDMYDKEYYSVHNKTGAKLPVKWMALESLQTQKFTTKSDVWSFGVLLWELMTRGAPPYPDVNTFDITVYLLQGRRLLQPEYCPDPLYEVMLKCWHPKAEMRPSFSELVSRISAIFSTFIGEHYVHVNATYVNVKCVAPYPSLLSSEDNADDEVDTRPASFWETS
Sequence of MER kinase (Q12866 21-999): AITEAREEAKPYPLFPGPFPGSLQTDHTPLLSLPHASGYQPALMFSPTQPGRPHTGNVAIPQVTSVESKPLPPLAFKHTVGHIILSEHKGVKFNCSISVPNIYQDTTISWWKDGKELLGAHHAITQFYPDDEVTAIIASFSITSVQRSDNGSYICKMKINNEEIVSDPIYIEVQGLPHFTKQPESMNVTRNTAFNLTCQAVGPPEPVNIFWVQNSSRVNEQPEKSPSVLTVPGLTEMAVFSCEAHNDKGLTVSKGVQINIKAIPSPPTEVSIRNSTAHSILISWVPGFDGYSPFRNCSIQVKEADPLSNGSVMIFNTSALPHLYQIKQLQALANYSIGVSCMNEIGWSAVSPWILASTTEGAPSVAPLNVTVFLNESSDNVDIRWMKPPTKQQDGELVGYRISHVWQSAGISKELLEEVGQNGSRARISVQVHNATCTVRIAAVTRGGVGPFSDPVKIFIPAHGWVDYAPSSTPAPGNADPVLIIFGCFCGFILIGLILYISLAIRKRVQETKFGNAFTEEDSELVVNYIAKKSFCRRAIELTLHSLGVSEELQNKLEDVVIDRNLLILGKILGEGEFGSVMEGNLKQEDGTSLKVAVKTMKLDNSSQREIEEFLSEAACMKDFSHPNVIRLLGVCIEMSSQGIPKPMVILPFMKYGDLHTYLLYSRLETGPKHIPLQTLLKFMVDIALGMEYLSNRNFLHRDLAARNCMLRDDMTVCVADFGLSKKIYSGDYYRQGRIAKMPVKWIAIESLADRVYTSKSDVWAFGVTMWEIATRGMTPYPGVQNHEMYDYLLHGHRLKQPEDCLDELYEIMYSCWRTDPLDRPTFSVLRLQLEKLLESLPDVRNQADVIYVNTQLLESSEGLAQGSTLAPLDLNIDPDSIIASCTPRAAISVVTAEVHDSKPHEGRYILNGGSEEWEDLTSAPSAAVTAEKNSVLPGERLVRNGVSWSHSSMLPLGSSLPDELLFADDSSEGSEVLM
Sequence of TRKA kinase (P04629 33-796): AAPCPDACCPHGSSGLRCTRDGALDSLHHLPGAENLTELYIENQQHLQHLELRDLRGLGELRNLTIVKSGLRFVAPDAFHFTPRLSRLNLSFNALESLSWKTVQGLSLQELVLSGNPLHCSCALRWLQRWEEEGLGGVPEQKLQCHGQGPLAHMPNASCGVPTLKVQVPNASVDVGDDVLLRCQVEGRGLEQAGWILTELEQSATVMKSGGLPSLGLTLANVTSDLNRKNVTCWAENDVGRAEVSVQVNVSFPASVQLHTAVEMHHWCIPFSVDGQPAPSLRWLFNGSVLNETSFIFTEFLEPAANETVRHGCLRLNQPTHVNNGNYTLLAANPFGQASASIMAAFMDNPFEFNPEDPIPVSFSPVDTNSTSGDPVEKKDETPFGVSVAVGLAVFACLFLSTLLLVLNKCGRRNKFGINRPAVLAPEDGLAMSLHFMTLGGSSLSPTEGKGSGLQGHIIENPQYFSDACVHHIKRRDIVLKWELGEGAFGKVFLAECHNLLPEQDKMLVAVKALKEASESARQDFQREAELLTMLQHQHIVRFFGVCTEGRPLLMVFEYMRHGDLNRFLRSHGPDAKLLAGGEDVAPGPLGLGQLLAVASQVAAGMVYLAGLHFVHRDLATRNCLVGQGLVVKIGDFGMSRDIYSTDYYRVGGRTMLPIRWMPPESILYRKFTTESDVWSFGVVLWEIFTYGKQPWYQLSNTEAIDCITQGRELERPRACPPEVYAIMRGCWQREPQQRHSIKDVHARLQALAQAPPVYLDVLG

Structure (SMILES) | IC50 (MER kinase) [nM] | IC50 (c-MET kinase) [nM] | IC50 (TRKA kinase) [nM]
COc1cn(-c2ccc(F)cc2C)nc1C(=O)Nc1ccc(Oc2ncnc3cc(OC)c4c(c23)OCCO4)c(F)c1 [Example 8, 1-(4-fluoro-2-methylphenyl)-N-(3-fluoro-4-((5-methoxy-2,3-dihydro-[1,4]dioxino[2,3-f]quinazolin-10-yl)oxy)phenyl)-4-methoxy-1H-pyrazole-3-carboxamide] | 500 to 5000 | 50 to 500 | 
COc1cc2nccc(Oc3ccc(NC(=O)c4cn(C(C)C)c(=O)n(-c5ccc(F)cc5)c4=O)cc3F)c2c2c1OCCO2 [Example 14, N-(3-fluoro-4-((5-methoxy-2,3-dihydro-[1,4]dioxino[2,3-f]quinolin-10-yl)oxy)phenyl)-3-(4-fluorophenyl)-1-isopropyl-2,4-dioxo-1,2,3,4-tetrahydropyrimidine-5-carboxamide] | ≤ 50 | ≤ 50 | 50 to 500
COc1cc2nccc(Oc3ccc(NC(=O)c4cn(CC5CC5)c(=O)n(-c5ccc(F)cc5)c4=O)cc3F)c2c2c1OCCO2 [Example 48, N-(3-fluoro-4-((5-methoxy-2,3-dihydro-[1,4]dioxino[2,3-f]quinolin-10-yl)oxy)phenyl)-3-(4-fluorophenyl)-1-(cyclopropylmethyl)-2,4-dioxo-1,2,3,4-tetrahydropyrimidine-5-carboxamide] | 50 to 500 | ≤ 50 | 50 to 500
COc1cc2nccc(Oc3ccc(NC(=O)c4cn(CC(C)C)c(=O)n(-c5ccc(F)cc5)c4=O)cc3F)c2c2c1OCCO2 [Example 47, N-(3-fluoro-4-((5-methoxy-2,3-dihydro-[1,4]dioxino[2,3-f]quinolin-10-yl)oxy)phenyl)-3-(4-fluorophenyl)-1-isobutyl-2,4-dioxo-1,2,3,4-tetrahydropyrimidine-5-carboxamide] | 50 to 500 | ≤ 50 | 50 to 500
CC(C)COc1cc2nccc(Oc3ccc(NC(=O)c4cn(C)c(=O)n(-c5ccc(F)cc5)c4=O)cc3F)c2c2c1OCCO2 [Example 83, N-(3-fluoro-4-((5-(isobutoxy)-2,3-dihydro-[1,4]dioxino[2,3-f]quinolin-10-yl)oxy)phenyl)-3-(4-fluorophenyl)-1-methyl-2,4-dioxo-1,2,3,4-tetrahydropyrimidine-5-carboxamide] | 50 to 500 | 500 to 5000 | 50 to 500
Cc1cc(F)ccc1-n1ccc(C(=O)Nc2ccc(Oc3ncnc4cc(OCCCN5CCOCC5)c5c(c34)OCCO5)c(F)c2)n1 [Example 10, 1-(4-fluoro-2-methylphenyl)-N-(3-fluoro-4-((5-(3-morpholinopropoxy)-2,3-dihydro-[1,4]dioxino[2,3-f]quinazolin-10-yl)oxy)phenyl)-1H-pyrazole-3-carboxamide] | 50 to 500 | ≤ 50 | 

More lines, now with the values ahead:

IC50 (MER kinase) [nM] | IC50 (c-MET kinase) [nM] | IC50 (TRKA kinase) [nM] | Structure (SMILES)
500 to 5000 | ≤ 50 | 50 to 500 | Cn1cc(C(=O)Nc2ccc(Oc3ccnc4cc(OCCCC#N)c5c(c34)OCCO5)cc2Cl)c(=O)n(-c2ccc(F)cc2)c1=O [Example 133, N-(2-chloro-4-((5-(3-cyanopropoxy)-2,3-dihydro-[1,4]dioxino[2,3-f]quinolin-10-yl)oxy)phenyl)-3-(4-fluorophenyl)-1-methyl-2,4-dioxo-1,2,3,4-tetrahydropyrimidine-5-carboxamide]
50 to 500 | 50 to 500 | 50 to 500 | COc1cc2nccc(Oc3cc(Cl)c(NC(=O)c4cn(C(C)C)c(=O)n(-c5ccc(F)cc5)c4=O)cc3F)c2c2c1OCCO2 [Example 118, N-(2-chloro-5-fluoro-4-((5-methoxy-2,3-dihydro-[1,4]dioxino[2,3-f]quinolin-10-yl)oxy)phenyl)-3-(4-fluorophenyl)-1-isopropyl-2,4-dioxo-1,2,3,4-tetrahydropyrimidine-5-carboxamide]
50 to 500 | 50 to 500 | 50 to 500 | Cn1cc(C(=O)Nc2ccc(Oc3ccnc4cc(OCC5CC5)c5c(c34)OCCO5)c(F)c2)c(=O)n(-c2ccc(F)cc2)c1=O [Example 84, N-(3-fluoro-4-((5-(cyclopropylmethoxy)-2,3-dihydro-[1,4]dioxino[2,3-f]quinolin-10-yl)oxy)phenyl)-3-(4-fluorophenyl)-1-methyl-2,4-dioxo-1,2,3,4-tetrahydropyrimidine-5-carboxamide]
≤ 50 | ≤ 50 | 500 to 5000 | COc1cc2nccc(Oc3ccc(NC(=O)c4cn(C(C)C)c(=O)n(-c5ccccc5F)c4=O)cc3F)c2c2c1OCCO2 [Example 110, N-(3-fluoro-4-((5-methoxy-2,3-dihydro-[1,4]dioxino[2,3-f]quinolin-10-yl)oxy)phenyl)-3-(2-fluorophenyl)-1-isopropyl-2,4-dioxo-1,2,3,4-tetrahydropyrimidine-5-carboxamide]
≤ 50 | 50 to 500 | 50 to 500 | CC(C)n1cc(C(=O)Nc2ccc(Oc3ccnc4cc(OC5COC5)c5c(c34)OCCO5)c(F)c2)c(=O)n(-c2ccc(F)cc2)c1=O [Example 89, N-(3-fluoro-4-((5-((oxetan-3-yl)oxy)-2,3-dihydro-[1,4]dioxino[2,3-f]quinolin-10-yl)oxy)phenyl)-3-(4-fluorophenyl)-1-isopropyl-2,4-dioxo-1,2,3,4-tetrahydropyrimidine-5-carboxamide]
50 to 500 | 500 to 5000 | 500 to 5000 | COc1cc2nccc(Oc3ccc(NC(=O)c4cn(C(C)C)c(=O)n(Cc5ccc(F)cc5)c4=O)cc3F)c2c2c1OCCO2 [Example 111, N-(3-fluoro-4-((5-methoxy-2,3-dihydro-[1,4]dioxino[2,3-f]quinolin-10-yl)oxy)phenyl)-3-(4-fluorobenzyl)-1-isopropyl-2,4-dioxo-1,2,3,4-tetrahydropyrimidine-5-carboxamide]
